# Source: ChEMBL document CHEMBL5614438, “CETZOLE Analogs as Potent Ferroptosis Inducers and Their Target Identification Using Covalent/Affinity Probes” (J Med Chem, 2024)
# The source made the active and inactive calls. The calls are words filed in the database; no cut-off is given here.
# Columns and labels:
# NCI-H522 [1] = assay: Cytotoxicity against human NCI-H522 cells overexpressing GFP-tagged SLC7A11 assessed as reduction in cell viability incubated for 3 days by methylene blue staining based spectrophotometric analysis; assay type: functional; settings: NCI-H522, 72 h, time 3 day
# U2OS = assay: Cytotoxicity against human U2OS cells assessed as reduction in cell viability incubated for 3 days by methylene blue staining based spectrophotometric analysis; assay type: functional; settings: 72 h, time 3 day
# MDA-MB-231 = assay: Cytotoxicity against human MDA-MB-231 cells assessed as reduction in cell viability incubated for 3 days by methylene blue staining based spectrophotometric analysis; assay type: functional; settings: MDA-MB-231, 72 h, time 3 day
# NCI-H522 [2] = assay: Cytotoxicity against human NCI-H522 cells assessed as reduction in cell viability incubated for 3 days by methylene blue staining based spectrophotometric analysis; assay type: functional; settings: NCI-H522, 72 h, time 3 day
# NCI-H522 [3] = assay: Cytotoxicity against human NCI-H522 cells overexpressing GFP-tagged RV assessed as reduction in cell viability incubated for 3 days by methylene blue staining based spectrophotometric analysis; assay type: functional; settings: NCI-H522, 72 h, time 3 day
# HT-1080 [4] = assay: Cytotoxicity against human HT-1080 cells assessed as reduction in cell viability incubated for 3 days by methylene blue staining based spectrophotometric analysis; assay type: functional; settings: HT-1080, 72 h, time 3 day
# HT-1080 [5] = assay: Cytotoxicity against human HT-1080 cells assessed as reduction in cell viability at 1 uM incubated for 3 days by methylene blue staining based spectrophotometric analysis; assay type: functional; settings: time 3.0 day
# MEF = assay: Cytotoxicity against mouse MEF cells assessed as reduction in cell viability at 1 uM incubated for 3 days by methylene blue staining based spectrophotometric analysis; assay type: toxicity; settings: 72 h, time 3 day
# WI-38 = assay: Cytotoxicity against human WI-38 cells assessed as reduction in cell viability at 1 uM incubated for 3 days by methylene blue staining based spectrophotometric analysis; assay type: toxicity; settings: wi-38, 72 h, time 3 day
# NCI-H522 [6] = assay: Induction of ferroptosis in human NCI-H522 cells assessed as cell death at 0.39 uM incubated for 3 days by methylene blue staining based spectrophotometric analysis relative to control; assay type: functional; settings: time 3 day
# NCI-H522 [7] = assay: Induction of ferroptosis in human NCI-H522 cells assessed as increase in intracellular lipid peroxidation accumulation at 0.39 uM incubated for 6 hrs by C11 BODIPY 581/591 staining based flow cytometry; assay type: functional, cell-based
# NCI-H522 [8] = assay: Cytotoxicity against human NCI-H522 cells assessed as reduction in cell viability at 1 uM incubated for 3 days by methylene blue staining based spectrophotometric analysis; assay type: functional; settings: time 3.0 day
# [9] = molecular target: Glucose-6-phosphate 1-dehydrogenase (Homo sapiens) (UniProt P11413); assay: Inhibition of G6PD in human HCT-116 cells using G6P as substrate assessed as reduction in enzyme activity by measuring absorbance at 100 uM incubated for 20 mins followed by G6P and […]; assay type: cell-based
# [10] = molecular target: Glucose-6-phosphate 1-dehydrogenase (Homo sapiens) (UniProt P11413); assay: Inhibition of G6PD in human HCT-116 cells using G6P as substrate at 100 uM incubated for 20 mins followed by G6P and […]; assay type: cell-based
# NCI-H522 [11] = assay: Induction of ferroptosis in human NCI-H522 cells assessed as cell death at 0.38 uM incubated for 3 days by methylene blue staining based spectrophotometric analysis relative to control; assay type: functional; settings: time 3 day
# NCI-H522 [12] = assay: Induction of ferroptosis in human NCI-H522 cells assessed as increase in intracellular lipid peroxidation accumulation at 0.36 uM incubated for 6 hrs by C11 BODIPY 581/591 staining based flow cytometry; assay type: functional, cell-based
# [13] = molecular target: T1, Peroxiredoxin-4 (Homo sapiens) (UniProt Q13162); assay: Inhibition of PRDX4 (unknown origin)
# T1 sequence (whole entry): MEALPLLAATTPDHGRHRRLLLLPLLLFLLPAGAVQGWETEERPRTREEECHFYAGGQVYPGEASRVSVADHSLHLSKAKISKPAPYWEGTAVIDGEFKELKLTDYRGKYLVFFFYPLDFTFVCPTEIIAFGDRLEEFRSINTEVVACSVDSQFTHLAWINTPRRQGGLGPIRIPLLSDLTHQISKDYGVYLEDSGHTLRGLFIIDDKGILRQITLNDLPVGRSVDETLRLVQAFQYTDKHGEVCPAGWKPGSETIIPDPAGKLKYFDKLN
# [14] = molecular target: Phospholipid hydroperoxide glutathione peroxidase GPX4 (Homo sapiens) (UniProt P36969); assay: Inhibition of recombinant GPX4 (unknown origin) at 100 uM incubated for 60 mins followed by NADPH addition
# NCI-H522 [15] = assay: Induction of ferroptosis in human NCI-H522 cells assessed as reduction in cell viability at 7.68 uM incubated for 3 days in presence of liproxstatin-1 by methylene blue staining based spectrophotometric analysis; assay type: functional; settings: time 3.0 day
# NCI-H522 [16] = assay: Induction of ferroptosis in human NCI-H522 cells assessed as increase in intracellular lipid peroxidation accumulation at 7.68 uM incubated for 6 hrs by C11 BODIPY 581/591 staining based flow cytometry; assay type: functional, cell-based
# NCI-H522 [17] = assay: Induction of cell death in human NCI-H522 cells at 10 uM incubated for 4 to 5 hrs by live cell imaging analysis relative to control; assay type: functional; settings: time 4-5 hrs
# NCI-H522 [18] = assay: Induction of cell death in human NCI-H522 cells at 10 uM incubated for 4 to 5 hrs by live cell imaging analysis; assay type: functional, cell-based; settings: time 4-5 hrs
# [19] = molecular target: Glucose-6-phosphate 1-dehydrogenase (Homo sapiens) (UniProt P11413); assay: Inhibition of G6PD in human HCT-116 cells using G6P as substrate at 25 uM incubated for 20 mins followed by G6P and […]; assay type: cell-based
# NCI-H522 [20] = assay: Induction of ferroptosis in human NCI-H522 cells assessed as reduction in cell viability at 13.68 uM incubated for 3 days in presence of liproxstatin-1 by methylene blue staining based spectrophotometric analysis; assay type: functional; settings: time 3.0 day
# Glucose-6-phosphate 1-dehydrogenase (Homo sapiens), sequence (P11413 whole entry): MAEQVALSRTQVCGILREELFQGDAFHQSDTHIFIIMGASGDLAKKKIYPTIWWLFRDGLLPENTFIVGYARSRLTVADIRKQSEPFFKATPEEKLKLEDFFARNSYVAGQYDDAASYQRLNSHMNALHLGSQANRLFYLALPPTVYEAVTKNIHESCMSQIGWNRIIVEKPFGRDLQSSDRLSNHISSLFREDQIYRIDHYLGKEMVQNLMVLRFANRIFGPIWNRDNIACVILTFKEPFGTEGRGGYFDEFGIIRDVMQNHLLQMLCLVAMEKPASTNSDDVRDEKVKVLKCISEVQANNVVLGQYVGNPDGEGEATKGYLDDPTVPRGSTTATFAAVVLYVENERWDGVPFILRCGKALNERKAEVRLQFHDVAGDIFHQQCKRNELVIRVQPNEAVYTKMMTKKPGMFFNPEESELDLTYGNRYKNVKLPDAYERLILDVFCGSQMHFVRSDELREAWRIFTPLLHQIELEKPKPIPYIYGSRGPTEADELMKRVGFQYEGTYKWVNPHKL
# Phospholipid hydroperoxide glutathione peroxidase GPX4 (Homo sapiens), sequence (P36969 whole entry): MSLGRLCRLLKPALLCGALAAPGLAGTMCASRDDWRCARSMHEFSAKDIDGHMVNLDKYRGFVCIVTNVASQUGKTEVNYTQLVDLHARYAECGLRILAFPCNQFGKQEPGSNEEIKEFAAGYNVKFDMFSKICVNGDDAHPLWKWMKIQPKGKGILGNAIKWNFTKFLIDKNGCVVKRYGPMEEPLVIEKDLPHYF
Structure (SMILES),CC50 (NCI-H522 [1]) [µM],CC50 (U2OS) [µM],CC50 (MDA-MB-231) [µM],CC50 (NCI-H522 [2]) [µM],CC50 (NCI-H522 [3]) [µM],CC50 (HT-1080 [4]) [µM],further results
C#Cc1nc(C2=C(C)C(OC(=O)CCCCCCC)/C(=N/OC(=O)CCCCCCC)C2)cs1 (centres undefined),> 20,> 20,19.1,> 20,> 20,> 20,
C#Cc1nc(C2=C(C)C(OC(=O)CCC)/C(=N/OC(=O)CCC)C2)cs1 (centres undefined),1.93,5.85,0.83,0.13,0.28,0.19,Activity (HT-1080 [5]): Active; Activity (MEF): Toxic; Activity (WI-38): Toxic; Activity (NCI-H522 [6]): ~60%; Activity (NCI-H522 [7]): Active; Activity (NCI-H522 [8]): Active
C#Cc1nc(C2=C(C)C(OC(=O)CC)/C(=N/OC(=O)CC)C2)cs1 (centres undefined),2.06,13.4,0.18,0.12,0.59,0.15,Activity (HT-1080 [5]): Active; Activity (MEF): Toxic; Activity (WI-38): Toxic; Activity [9]: 0.13; inhibition [10]: Active; Activity (NCI-H522 [11]): ~60%; Activity (NCI-H522 [12]): Active; inhibition [13]: inactive; Activity (NCI-H522 [8]): Active; inhibition [14]: Active
C#Cc1nc(C2=C(C)C(=O)/C(=N/OC(C)=O)C2)cs1,> 20,> 20,18.5,11,> 20,> 20,
C#Cc1nc(C2=C(C)C(O)CC2)cs1 (racemic),10.3,14.9,6.28,,,3.07,Activity (HT-1080 [5]): inactive; Activity (NCI-H522 [15]): inactive; Activity (NCI-H522 [16]): Active; Activity (MEF): Non-Toxic; Activity (NCI-H522 [17]): 50%; Activity (WI-38): Non-Toxic; inhibition [10]: Active; inhibition [13]: inactive; Activity (NCI-H522 [18]): Active; Activity (NCI-H522 [8]): inactive
C#Cc1nc(C2=C(C)C(=O)/C(=N/O)C2)cs1,> 20,> 20,8.05,> 20,> 20,5.29,
COc1ccc(N(C(=O)CCl)C(C(=O)NCCc2ccccc2)c2cccs2)cc1Cl (centres undefined),,,,,,,inhibition [19]: Active; inhibition [13]: inactive
C#Cc1nc(C2=C(C)C(NC(=O)c3cc4ccc(N(CC)CC)cc4oc3=O)CC2)cs1 (centres undefined),,,1.2,4.56,,4.58,Activity (NCI-H522 [20]): inactive
C#Cc1nc(C2=C(C)C(=O)NCC2)cs1,20.2,7.81,9.32,5.4,10.9,4.89,
C#Cc1nc(C2=C(C)C(O)/C(=N\OCc3ccccc3)C2)cs1 (centres undefined),2.17,> 20,13.4,1.18,3.02,0.93,
C#Cc1nc(C2=C(C)C(OC(=O)C(c3ccccc3)c3ccccc3)/C(=N\OC(=O)C(c3ccccc3)c3ccccc3)C2)cs1 (centres undefined),9.34,9.1,14.9,3.5,5.02,1.85,
